Data published in PubChem BioAssay (NCI).
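Following 48 hours of exposure in 96-well plates, responses at five concentrations were used to interpolate endpoints linearly. The concentration for full growth arrest is given as TGI.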

Columns and labels:
Experiment in all cases: NCI tumour cell line growth inhibition, 48 h
786-0 renal = system: 786-0 renal
A498 renal = system: A498 renal
A549 NSCLC = system: A549 NSCLC
ACHN renal = system: ACHN renal
BT-549 breast = system: BT-549 breast
CAKI-1 renal = system: CAKI-1 renal
CCRF-CEM leukemia = system: CCRF-CEM leukemia
COLO 205 colon = system: COLO 205 colon
DU-145 prostate = system: DU-145 prostate
EKVX NSCLC = system: EKVX NSCLC
HCC-2998 colon = system: HCC-2998 colon
HCT-116 colon = system: HCT-116 colon
HCT-15 colon = system: HCT-15 colon
HOP-62 NSCLC = system: HOP-62 NSCLC
HOP-92 NSCLC = system: HOP-92 NSCLC
HT29 colon = system: HT29 colon
IGROV1 ovarian = system: IGROV1 ovarian
K-562 leukemia = system: K-562 leukemia
KM12 colon = system: KM12 colon
LOX IMVI melanoma = system: LOX IMVI melanoma
M14 melanoma = system: M14 melanoma
MALME-3M melanoma = system: MALME-3M melanoma
MCF7 breast = system: MCF7 breast
MDA-MB-231 breast = system: MDA-MB-231 breast
MDA-MB-435 = system: MDA-MB-435
MDA-N = system: MDA-N
MOLT-4 leukemia = system: MOLT-4 leukemia
NCI-H226 lung = system: NCI-H226 lung
NCI-H23 lung = system: NCI-H23 lung
NCI-H460 lung = system: NCI-H460 lung
NCI-H522 lung = system: NCI-H522 lung
NCI/ADR-RES ovarian = system: NCI/ADR-RES ovarian
OVCAR-3 ovarian = system: OVCAR-3 ovarian
OVCAR-4 ovarian = system: OVCAR-4 ovarian
OVCAR-5 ovarian = system: OVCAR-5 ovarian
OVCAR-8 ovarian = system: OVCAR-8 ovarian
PC-3 prostate = system: PC-3 prostate
RPMI-8226 leukemia = system: RPMI-8226 leukemia
RXF 393 renal = system: RXF 393 renal
SF-268 CNS = system: SF-268 CNS
SF-295 CNS = system: SF-295 CNS
SF-539 CNS = system: SF-539 CNS
SK-MEL-2 melanoma = system: SK-MEL-2 melanoma
SK-MEL-28 melanoma = system: SK-MEL-28 melanoma
SK-MEL-5 melanoma = system: SK-MEL-5 melanoma
SK-OV-3 ovarian = system: SK-OV-3 ovarian
SN12C renal = system: SN12C renal
SNB-19 CNS = system: SNB-19 CNS
SNB-75 CNS = system: SNB-75 CNS
SR leukemia = system: SR leukemia
SW-620 colon = system: SW-620 colon
T-47D breast = system: T-47D breast
TK-10 renal = system: TK-10 renal
U251 CNS = system: U251 CNS
UACC-257 melanoma = system: UACC-257 melanoma
UACC-62 melanoma = system: UACC-62 melanoma
UO-31 renal = system: UO-31 renal
HL-60(TB) leukemia = system: HL-60(TB) leukemia
HS 578T breast = system: HS 578T breast

SMILES: CC(C)Sc1nc(C#N)cc2c1CCCC2
- TGI (786-0 renal): > 100 µM
- TGI (A498 renal): > 100 µM
- TGI (A549 NSCLC): > 100 µM
- TGI (ACHN renal): > 100 µM
- TGI (BT-549 breast): > 100 µM
- TGI (CAKI-1 renal): > 100 µM
- TGI (CCRF-CEM leukemia): 55.8 µM
- TGI (COLO 205 colon): 50.1 µM
- TGI (DU-145 prostate): > 100 µM
- TGI (EKVX NSCLC): > 100 µM
- TGI (HCC-2998 colon): > 100 µM
- TGI (HCT-116 colon): > 100 µM
- TGI (HCT-15 colon): > 100 µM
- TGI (HOP-62 NSCLC): > 100 µM
- TGI (HOP-92 NSCLC): 93.5 µM
- TGI (HT29 colon): > 100 µM
- TGI (IGROV1 ovarian): > 100 µM
- TGI (K-562 leukemia): > 100 µM
- TGI (KM12 colon): > 100 µM
- TGI (LOX IMVI melanoma): 70.3 µM
- TGI (M14 melanoma): > 100 µM
- TGI (MALME-3M melanoma): > 100 µM
- TGI (MCF7 breast): > 100 µM
- TGI (MDA-MB-231 breast): > 100 µM
- TGI (MDA-MB-435): > 100 µM
- TGI (MDA-N): > 100 µM
- TGI (MOLT-4 leukemia): 61.6 µM
- TGI (NCI-H226 lung): > 100 µM
- TGI (NCI-H23 lung): > 100 µM
- TGI (NCI-H460 lung): > 100 µM
- TGI (NCI-H522 lung): 78.4 µM
- TGI (NCI/ADR-RES ovarian): > 100 µM
- TGI (OVCAR-3 ovarian): > 100 µM
- TGI (OVCAR-4 ovarian): > 100 µM
- TGI (OVCAR-5 ovarian): > 100 µM
- TGI (OVCAR-8 ovarian): > 100 µM
- TGI (PC-3 prostate): > 100 µM
- TGI (RPMI-8226 leukemia): 68.9 µM
- TGI (RXF 393 renal): 87.9 µM
- TGI (SF-268 CNS): > 100 µM
- TGI (SF-295 CNS): > 100 µM
- TGI (SF-539 CNS): > 100 µM
- TGI (SK-MEL-2 melanoma): 63.2 µM
- TGI (SK-MEL-28 melanoma): > 100 µM
- TGI (SK-MEL-5 melanoma): 33.2 µM
- TGI (SK-OV-3 ovarian): > 100 µM
- TGI (SN12C renal): > 100 µM
- TGI (SNB-19 CNS): > 100 µM
- TGI (SNB-75 CNS): > 100 µM
- TGI (SR leukemia): 79.1 µM
- TGI (SW-620 colon): > 100 µM
- TGI (T-47D breast): > 100 µM
- TGI (TK-10 renal): > 100 µM
- TGI (U251 CNS): > 100 µM
- TGI (UACC-257 melanoma): > 100 µM
- TGI (UACC-62 melanoma): > 100 µM
- TGI (UO-31 renal): > 100 µM

SMILES: NC(=O)N/N=C(\Cc1nc2ccc(Cl)cc2[nH]c1=O)C(=O)Nc1ccc(Cl)cc1Cl
- TGI (786-0 renal): > 100 µM
- TGI (A498 renal): > 100 µM
- TGI (A549 NSCLC): > 100 µM
- TGI (ACHN renal): > 100 µM
- TGI (BT-549 breast): > 100 µM
- TGI (CAKI-1 renal): > 100 µM
- TGI (CCRF-CEM leukemia): > 100 µM
- TGI (COLO 205 colon): > 100 µM
- TGI (DU-145 prostate): > 100 µM
- TGI (EKVX NSCLC): > 100 µM
- TGI (HCC-2998 colon): > 100 µM
- TGI (HCT-116 colon): > 100 µM
- TGI (HCT-15 colon): > 100 µM
- TGI (HL-60(TB) leukemia): > 100 µM
- TGI (HS 578T breast): > 100 µM
- TGI (HT29 colon): > 100 µM
- TGI (IGROV1 ovarian): > 100 µM
- TGI (K-562 leukemia): > 100 µM
- TGI (KM12 colon): > 100 µM
- TGI (LOX IMVI melanoma): > 100 µM
- TGI (M14 melanoma): > 100 µM
- TGI (MALME-3M melanoma): > 100 µM
- TGI (MCF7 breast): > 100 µM
- TGI (MDA-MB-231 breast): > 100 µM
- TGI (MDA-MB-435): > 100 µM
- TGI (MDA-N): > 100 µM
- TGI (MOLT-4 leukemia): > 100 µM
- TGI (NCI-H226 lung): > 100 µM
- TGI (NCI-H23 lung): > 100 µM
- TGI (NCI-H460 lung): > 100 µM
- TGI (NCI-H522 lung): > 100 µM
- TGI (NCI/ADR-RES ovarian): > 100 µM
- TGI (OVCAR-3 ovarian): > 100 µM
- TGI (OVCAR-4 ovarian): > 100 µM
- TGI (OVCAR-5 ovarian): > 100 µM
- TGI (OVCAR-8 ovarian): > 100 µM
- TGI (PC-3 prostate): > 100 µM
- TGI (RPMI-8226 leukemia): > 100 µM
- TGI (SF-268 CNS): > 100 µM
- TGI (SF-295 CNS): > 100 µM
- TGI (SF-539 CNS): > 100 µM
- TGI (SK-MEL-2 melanoma): > 100 µM
- TGI (SK-MEL-28 melanoma): > 100 µM
- TGI (SK-MEL-5 melanoma): > 100 µM
- TGI (SK-OV-3 ovarian): > 100 µM
- TGI (SN12C renal): > 100 µM
- TGI (SNB-19 CNS): > 100 µM
- TGI (SNB-75 CNS): > 100 µM
- TGI (SW-620 colon): > 100 µM
- TGI (T-47D breast): > 100 µM
- TGI (TK-10 renal): > 100 µM
- TGI (U251 CNS): > 100 µM
- TGI (UACC-257 melanoma): > 100 µM
- TGI (UACC-62 melanoma): > 100 µM
- TGI (UO-31 renal): > 100 µM
